{"source": "patent US8492109B2", "about": "(priority 2009, dated 2013)", "key": {"[1]": {"tested_on": "M17 cells"}, "[2]": {"tested_on": "HIT-T15 cells", "type": "cell-based, human"}, "[3]": {"tested_on": "M17 cells", "type": "cell-based"}, "[4]": {"tested_on": "HEK293 cells"}, "[5]": {"tested_on": "neuronal cell lines M17, Neuro2a and non-neuronal cell lines HEK293, HIT-T15", "type": "cell-based"}, "[6]": {"tested_on": "primary rat granule cerebellar neurons (RGCN)"}, "[7]": {"tested_on": "HIT-T15 cells", "type": "cell-based, human", "remark": "listed apart in the source"}}, "data": [{"smiles": "CO/C1=C\\C(C)=C\\[C@@H](C)[C@@H](O)[C@@H](C)C/C(C)=C/C=C/[C@H](OC)[C@@H]([C@@H](C)[C@@H](O)[C@H](C)[C@@]2(O)C[C@@H](O)[C@H](C)[C@@H](C(C)C)O2)OC1=O", "note": "[Bafilomycin, Bafilomycin A1]", "values": [{"measurement": "inhibition of SNAP25 cleavage by BoNT/A holotoxin", "setting": "[1]", "value": "inhibited SNAP25 cleavage"}, {"measurement": "effect on efficiency of plasmid DNA transfection mediated by FuGene (fluorescent protein expression)", "setting": "[2]", "value": "no inhibitory effect"}, {"measurement": "effect on efficiency of plasmid DNA transfection mediated by FuGene (fluorescent protein expression)", "setting": "[3]", "value": "no inhibitory effect"}, {"measurement": "bafilomycin cytotoxicity", "setting": "[4]", "value": "particularly susceptible to bafilomycin toxicity"}, {"measurement": "inhibition of BoNT intoxication", "setting": "[5]", "value": "clearly inhibited"}, {"measurement": "sensitivity of functional transduction of BoNT Lc to bafilomycin", "setting": "[5]", "value": "fully sensitive"}, {"measurement": "SNAP25 cleavage in bafilomycin-treated cells", "setting": "[6]", "value": "a small amount of SNAP25 cleavage was observed"}, {"measurement": "cytotoxicity (visual)", "setting": "[6]", "value": "Some cytoxicity"}, {"measurement": "inhibition of BoNT/A intoxication (SNAP25 cleavage)", "setting": "[6]", "value": "completely inhibit"}, {"measurement": "inhibition of functional internalization of recombinant BoNT/A Lc", "setting": "[7]", "value": "inhibited functional internalization"}]}]}
